Here are results for 43 compounds from patent US10774052B2, “Heteroaryl compounds and uses thereof” (Celgene CAR LLC, priority 2013, dated 2020).

Structures are written as SMILES. Bounds are passed on as bounds.

One assay concerns pFGFR4 in MDA-MB-453 cells. The experiment in a line: FGFR4 signaling, pFGFR4 (MDA); Western blot (Method A), MSD (Method B), ELISA (Method C). The class given is cell-based. As to conditions: Homo sapiens, MDA-MB-453, MDA-MB-453 cells; Method B (MSD) for signaling EC50 determination. The method, then: The MDA-MB-453 protein concentrations were determined by a BCA Assay (Pierce, Rockford, Ill.). A sample of 50-100 μg of each lysate was separated by a 4-12% gradient (SDS-PAGE (Invitrogen)), transferred to a nitrocellulose membrane (Biorad, Hercules, Calif.), and probed with specific antibodies. Phospho-protein signals were quantitated using Odyssey Infrared Imaging (Li-Cor Biosciences).
To assess phospho-FGFR signaling, the blots were probed with anti-Phospho-FGFR (Y653/Y654) and total anti-FGFR antibodies. The phospho-FGFR signal was normalized to total FGFR expression for each sample.
(In general: In western blotting, separated proteins are transferred to a membrane and probed.)
Consider `C=CC(=O)NC1CCCCC1Nc1ncc2c(n1)N(C)C(=O)N(c1cc(OC)cc(OC)c1)C2` (racemic) [Compound I-18], for which the EC50 is more than 1000 nM. On the same count and under the same terms, next, `CCC(=O)Nc1ccccc1Nc1ncc2c(n1)N(C)C(=O)N(c1c(Cl)c(OC)cc(OC)c1Cl)C2` [Compound I-235]: 501 to 999 nM. On the same count and under the same terms, next, `C=CC(=O)Nc1ccccc1Nc1ncc2nc(-c3cc(OC)cc(OC)c3)c(=O)n(C)c2n1` [Compound I-128]: more than 1000 nM. `C=CC(=O)Nc1ccccc1Nc1ncc2c(n1)N(C)C(=O)N(c1ccccc1)C2` [Compound I-38] displayed an EC50 of more than 1000 nM. On to `C=CC(=O)N[C@H]1CCCC[C@H]1Nc1ncc2c(n1)N(Cc1nccs1)C(=O)N(c1c(Cl)c(OC)cc(OC)c1Cl)C2` [Compound I-92], for which the concentration giving a half-maximal response (EC50) was in the range of 101 to 500 nM. On the same count and under the same terms, next, `C=CC(=O)Nc1ccccc1Nc1ncc2c(n1)N(Cc1cccc(F)c1)C(=O)N(c1c(Cl)c(OC)cc(OC)c1Cl)C2` [Compound I-12]: less than 100 nM; `C=CC(=O)Nc1ccccc1Nc1ncc2c(n1)N(Cc1nccs1)C(=O)N(c1c(Cl)c(OC)cc(OC)c1Cl)C2` [Compound I-91]: less than 100 nM. On the same count and under the same terms, next, `C=CC(=O)NC1CCCCC1Nc1ncc2c(n1)N(C1CCCNC1)C(=O)N(c1cc(OC)cc(OC)c1)C2` (racemic) [Compound I-46]: more than 1000 nM; `C=CC(=O)Nc1cc(CN2CCN(CC)CC2)ccc1Nc1ncc2c(n1)N(C)C(=O)N(c1cc(OC)cc(OC)c1)C2` [Compound I-122]: 101 to 500 nM; `C=CC(=O)Nc1ccccc1Nc1ncc2c(n1)N(CC)C(=O)N(CC)C2` [Compound I-120]: more than 1000 nM. `C=CC(=O)Nc1cc(-c2nccs2)ccc1Nc1ncc2c(n1)N(C)C(=O)N(c1cc(OC)cc(OC)c1)C2` [Compound I-84] gave a concentration for a half-maximal effect (EC50) of 101 to 500 nM.

Staying with this assay, now noted: Homo sapiens; MDA-MB-453 cells; Method A (Western blot) for signaling EC50 determination.
In turn, `C=CC(=O)Nc1ccccc1Nc1ncc2c(n1)N(C)C(=O)N(c1c(Cl)c(OC)cc(OC)c1Cl)C2` [Compound I-2] registered an EC50 of less than 100 nM. On the same count and under the same terms, with `C=CC(=O)NCc1ccccc1Nc1ncc2c(n1)N(Cc1cccc(NC(=O)CC)c1)C(=O)N(c1c(Cl)c(OC)cc(OC)c1Cl)C2` [Compound I-179] the figure was less than 100 nM; with `C=CC(=O)Nc1ccc(Nc2ncc3c(n2)N(Cc2cccc(NC(=O)CC)c2)C(=O)N(c2c(Cl)c(OC)cc(OC)c2Cl)C3)cc1` [Compound I-233], less than 100 nM.

The same assay, now with this note: Homo sapiens; MDA-MB-453 cells; Method B (MSD) for signaling EC50 determination.
With `C=CC(=O)Nc1cc(OCCOC)ccc1Nc1ncc2c(n1)N(Cc1ccccc1)C(=O)N(c1cc(OC)cc(OC)c1)C2` [Compound I-14], the EC50 lay within 101 to 500 nM.

Compound `C=CC(=O)Nc1ccccc1Nc1ncc2c(n1)N(Cc1csc(C)n1)C(=O)N(c1c(Cl)c(OC)cc(OC)c1Cl)C2` [Compound I-134] gave an EC50 of less than 100 nM. Same read-out and setting: with `C=CC(=O)NC1CCCCC1Nc1ncc2c(n1)NC(=O)N(c1c(Cl)c(OC)cc(OC)c1Cl)C2` (racemic) [Compound I-73] the figure was 101 to 500 nM; with `C=CC(=O)N[C@H]1CCCC[C@H]1Nc1ncc2c(n1)N(Cc1ccccc1)C(=O)N(c1c(Cl)c(OC)cc(OC)c1Cl)C2` [Compound I-82], less than 100 nM. Same read-out and setting: with `C=CC(=O)Nc1ccccc1Nc1ncc2c(n1)N(CC1CCNCC1)C(=O)N(c1cc(OC)cc(OC)c1)C2` [Compound I-40] the figure was more than 1000 nM; with `C=CC(=O)Nc1cc(N2CCN(C(=O)OC(C)(C)C)CC2)ccc1Nc1ncc2c(n1)N(C)C(=O)N(c1c(Cl)c(OC)cc(OC)c1Cl)C2` [Compound I-62], less than 100 nM; with `C=CC(=O)Nc1cc(-c2cnn(C)c2)ccc1Nc1ncc2c(n1)N(C)C(=O)N(c1cc(OC)cc(OC)c1)C2` [Compound I-77], less than 100 nM. The same measure, in the same setting: next, `C=CC(=O)Nc1cc(-c2cnn(C)c2)ccc1Nc1ncc2c(n1)N(C)C(=O)N(c1c(Cl)c(OC)cc(OC)c1Cl)C2` [Compound I-141]: less than 100 nM. `C=CC(=O)Nc1ccc(N2CCN(CC)CC2)cc1Nc1ncc2c(n1)N(C)C(=O)N(c1cc(OC)cc(OC)c1)C2` [Compound I-30] returned an EC50 of 101 to 500 nM. The same measure, in the same setting: next, `C=CS(=O)(=O)Nc1ccccc1Nc1ncc2c(n1)N(C)C(=O)N(c1cc(OC)cc(OC)c1)C2` [Compound I-67]: less than 100 nM; `C=CC(=O)Nc1ccccc1Nc1ncc2c(n1)N(C)C(=O)N(c1cc(OC)cc(OC)c1F)C2` [Compound I-108]: less than 100 nM. The same measure, in the same setting: with `C=CC(=O)Nc1cc(C2CCN(CC)CC2)ccc1Nc1ncc2c(n1)N(C)C(=O)N(c1cc(OC)cc(OC)c1)C2` [Compound I-54] the figure was 101 to 500 nM.

Turning to `C=CC(=O)NCc1ccccc1Nc1ncc2c(n1)N(C)C(=O)N(c1c(Cl)c(OC)cc(OC)c1Cl)C2` [Compound I-181], the EC50 was less than 100 nM. Same read-out and setting: next, `C=CC(=O)Nc1ccccc1Nc1ncc2c(n1)N(C1CC1)C(=O)N(c1cc(OC)cc(OC)c1)C2` [Compound I-34]: less than 100 nM. `C=CC(=O)Nc1cc(N2CCN(CC)CC2)ccc1Nc1ncc2c(n1)N(C)C(=O)N(c1cc(OC)cc(OC)c1)C2` [Compound I-15]: the concentration giving a half-maximal response (EC50) was less than 100 nM. In the case of `C=CC(=O)N[C@@H]1CCCC[C@@H]1Nc1ncc2c(n1)N(Cc1ccccc1)C(=O)N(c1c(Cl)c(OC)cc(OC)c1Cl)C2` [Compound I-66], the EC50 is more than 1000 nM. Same read-out and setting: with `C=CC(=O)Nc1ccccc1Nc1ncc2c(n1)N(Cc1ccn(C)n1)C(=O)N(c1c(Cl)c(OC)cc(OC)c1Cl)C2` [Compound I-136] the figure was less than 100 nM; with `C=CC(=O)Nc1cc(C2=CCN(CC)CC2)ccc1Nc1ncc2c(n1)N(C)C(=O)N(c1cc(OC)cc(OC)c1)C2` [Compound I-56], less than 100 nM.

As for `C=CC(=O)Nc1ccc(-c2nccs2)cc1Nc1ncc2c(n1)N(C)C(=O)N(c1cc(OC)cc(OC)c1)C2` [Compound I-78], the EC50 lay within 101 to 500 nM. In turn, `C=CC(=O)NC1CCCCC1Nc1ncc2c(n1)N(C1CCC1)C(=O)N(c1c(Cl)c(OC)cc(OC)c1Cl)C2` (racemic) [Compound I-70] yielded a concentration for a half-maximal effect (EC50) of 101 to 500 nM. `C=CC(=O)Nc1cc(C(=O)NC2CCN(C)CC2)ccc1Nc1ncc2c(n1)N(C)C(=O)N(c1c(Cl)c(OC)cc(OC)c1Cl)C2` [Compound I-150] returned an EC50 of less than 100 nM. The same measure, in the same setting: with `C=CC(=O)N[C@H]1CCCC[C@H]1Nc1ncc2c(n1)N(Cc1ccn(C)n1)C(=O)N(c1c(Cl)c(OC)cc(OC)c1Cl)C2` [Compound I-147] the figure was less than 100 nM; with `C=CC(=O)Nc1ccccc1Nc1ncc2c(n1)N(CC1CCN(C(=O)OC(C)(C)C)CC1)C(=O)N(c1cc(OC)cc(OC)c1)C2` [Compound I-60], 101 to 500 nM. On the same count and under the same terms, next, `C=CCN1C(=O)N(c2cc(OC)cc(OC)c2)Cc2cnc(Nc3ccccc3NC(=O)C=C)nc21` [Compound I-32]: less than 100 nM; `C=CC(=O)Nc1ccccc1Nc1ncc2c(n1)N(Cc1ccc(Cl)c(OC)c1)C(=O)N(c1c(Cl)c(OC)cc(OC)c1Cl)C2` [Compound I-24]: less than 100 nM; `C=CC(=O)Nc1ccccc1Nc1ncc2c(n1)N(Cc1cccc(OC)c1)C(=O)N(c1c(Cl)c(OC)cc(OC)c1Cl)C2` [Compound I-28]: less than 100 nM. The compound `C=CC(=O)Nc1ccccc1Nc1ncc2c(n1)N(Cc1ccc(F)c(N)c1)C(=O)N(c1c(Cl)c(OC)cc(OC)c1Cl)C2` [Compound I-144] returned an EC50 of less than 100 nM.

The same assay, now with this note: Homo sapiens; MDA-MB-453 cells; Method C (ELISA) for signaling EC50 determination.
Compound `C=CC(=O)Nc1ccccc1CNc1ncc2c(n1)N(Cc1cccc(NC(=O)CC)c1)C(=O)N(c1c(Cl)c(OC)cc(OC)c1Cl)C2` [Compound I-180] gave a half-maximal effective concentration (EC50) of less than 100 nM.

Staying with this assay, now noted: MDA-MB-453 cells; Method B (MSD) for signaling EC50 determination.
With `C=CC(=O)Nc1cc(C(F)(F)F)ccc1Nc1ncc2c(n1)N(Cc1ccccc1)C(=O)N(c1c(Cl)c(OC)cc(OC)c1Cl)C2` [Compound I-10], the half-maximal effective concentration (EC50) is more than 1000 nM.

For orientation: EC50 means the concentration that produces a half-maximal response.
